Data reported in patent US20220160713A1, “SELECTIVE INHIBITOR OF PROTEIN ARGININE […] 5 (PRMT5)” (PRELUDE THERAPEUTICS, INCORPORATED, priority 2019, published 2022).
pIC50: −log10 of the molar value. Values after ≈ are worked out from the molar mass of the structure shown. “Also recorded” adds a separate entry of the source. Blank lines part the entries; values can stand above or below the compound they belong to.

Experiments:
physchem = settings: 25 °C, thermodynamic from solid
Procedure: Compounds are first dispersed in freshly prepared FaSSIF (http://biorelevant.com/site_media/upload/documents/How_to_make_FaSSIF_FeSSIF_and_FaSSGF.pdf) buffer in 1 mg/mL respectively, and the standard samples are prepared by preparing 1 mg/mL of test compounds in DMSO. The compounds are then sufficient mixed by vortex mixer for 30 sec, and agitated at 25° C. using 300 rpm form 4 hour in thermo mixer. After incubation, the prepared samples are centrifuged at 10000 rpm for 10 min to remove the undissolved solid, the resulting supernatants are applied to HPLC. The actual concentrations of the compounds are evaluated by measuring the peak area, and the solubility (S) of compounds is calculated according to following equation:
S=Csmp=Cstd*(Asmp/Astd)*(Vstd/Vsmp)
Where C is the sample concentration in μg/mL, A is the peak area, and V is the injection volume.

Granta-519 cells = experiment: Cell proliferation assay on Granta-519 cells (CCK-8); type: cell-based; settings: Homo sapiens, 240 h; Granta-519 cell line, day 10; read-out: Prolif. IC50
Procedure: Granta-519 cells are maintained in PRMI 1640 (Corning Cellgro, Catalog #: 10-040-CV) medium supplemented with 10% v/v FBS (GE Healthcare, Catalog #: SH30910.03). Formula I is dissolved in DMSO to make 10 mM stocks and stored at −20° C. Nine-point, 3-fold serial dilutions are made with DMSO with top concentration at 1 mM (working stocks).
On day of experiment, compound working stocks are further diluted at 1:50 with fresh medium in 96 well plate, and 10 μL of diluted drugs are added to a new 96 well plate for proliferation assay. Cells growing at exponential phase are spun down at 1500 rpm for 4 min and resuspend in fresh medium to reach a density of 0.5×10^6 cells/ml. 200 ul of cells are added to 96 well plate containing diluted drugs and incubated for 3 days. DMSO is used a vehicle control.
One day 3, 10 μL of Cell Counting Kit-8 (CCK-8, Jojindo, CK04-13) solution is added to a new 96 well plate. […] Plates are incubated in CO2 incubator for 2 hours and OD450 values are measured with a microplate reader (iMark microplate reader, Bio-Rad). […]
Percentage of viable cells, relative to DMSO vehicle control, is calculated and plotted in Graphpad Prism ([Inhibitor] vs. normalized response−Variable slope) to determine proliferation IC50 values on day 10.

[1] = test system: sDMA in Granta-519 tumor samples; experiment: sDMA levels in tumor samples of Granta-519 mouse xenograft (western blot); type: in vivo
Procedure: (§1) Granta-519 cells was maintained in DMEM medium supplemented with 10% fetal bovine serum and 2 mM L-Glutamine at 37° C. in an atmosphere of 5% CO2 in air. Cells in exponential growth phase were harvested and 1×10^7 cells in 0.1 mL of PBS with Matrigel (1:1) were injected subcutaneously at the right lower flank region of each mouse for tumor development. The treatments were started when the mean tumor size reaches approximately 300-400 mm^3. […] Formula I or vehicle (0.5% Na CMC+0.5% Tween80, suspension) were administered orally (QD for Formula I, QD for vehicle) at a dose of 30 mg/kg and 50 mg/kg for 19 and 16 days, respectively. Body weights and tumor size were measured every 3 to 4 days after randomization. Animals were euthanized 12 hours after last dosing, and blood and tumor samples were collected for analysis.
To measure sDMA levels in tumor samples, tumors from each mouse were weighted and homogenized in RIPA buffer supplemented with protease inhibitor (cOmplete™, EDTA-free Protease Inhibitor Cocktail, Roche). Lysate were centrifuged at 14,000 rpm for 30 min at 4° C. to remove debris. Total protein concentrations of lysate were determined by BCA assay (ThermoFisher Scientific, Catalog #: 23225). Equal amount of total proteins from each tumor were separated on SDS-PAGE gel, and sDMA levels were determined by WB as described previously.

[2] = test system: Granta-519 mouse xenograft; experiment: Tumor growth inhibition in Granta-519 mouse xenograft model; type: in vivo
Procedure: as §1

[3] = Rat non-crossover PK study; type: in vivo, rat (SD, male, non-fasted); settings: 1 mg/kg p.o.
Procedure: In a rat (SD, male, non-fasted) non-crossover PK study, the compound of Formula I was dosed at 1 mg/kg (DMA: 20% HPBCD=5:95, solution) via i.v. administration (N=3) and 1 mg/kg (0.5% Na CMC+0.5% Tween80, solution) via oral gauge (p.o.) (N=3).

[4] = test system: Symmetric Di-Methyl Arginine (sDMA) marks in Granta-519 cell line; experiment: Cellular sDMA western blot in Granta cells; type: cell-based; settings: Homo sapiens, 72 h, 3 days
[5] = Dynamic vapor sorption (DVS); type: physicochemical
Procedure: The dynamic vapor sorption experiments can be done with a VTI SGA-Cx100 Symmetric Vapor Sorption Analyzer. The moisture uptake profile is completed in three cycles of 10% RH increments with adsorption from 5% to 95% RH, followed by desorption of 10% increments from 95% to 5%. The equilibration criteria are 0.0050 wt % in 5 minutes with a maximum equilibration time of 180 minutes. All adsorption and desorption are performed at room temperature (21-22° C.). No pre-drying step is applied for the samples.

[6] = Gravimetric solubility estimate in water; type: physicochemical; settings: thermodynamic from solid
[7] = room temperature, normal humidity range (40-50% RH)

solubility at 4 h (physchem; fassif): < 2 µg/mL
SMILES: O=C1C(O)=C([C@H]2CC[C@H](c3ccc(Cl)cc3)CC2)C(=O)c2ccccc21 [Atovaquone]

SMILES: C[C@@]1(O)[C@@H]([C@H](O)c2ccc(Cl)c(Cl)c2)O[C@@H](n2ccc3c(N)ncnc32)[C@@H]1O [Formula I, (2R,3S,4R,5R)-5-(4-amino-7H-pyrrolo[2,3-d]pyrimidin-7-yl)-2-((R)-(3,4-dichlorophenyl)(hydroxy)methyl)-3-methyltetrahydrofuran-3,4-diol]
pIC50 (Granta-519 cells): 7.12
inhibition of sDMA in tumor ([1]; 30 mg/kg orally QD): > 90%
sDMA in tumor ([1]; 50 mg/kg orally QD): no detectable sDMA
body weight loss ([2]; 30 mg/kg orally QD, 19 days): 1%
tumor growth inhibition ([2]; 30 mg/kg orally QD, 19 days): 46%
body weight loss ([2]; 50 mg/kg orally QD, 16 days): 8%
tumor growth inhibition ([2]; 50 mg/kg orally QD, 16 days): 79%
average dose normalized AUC [3]: 3246 ng·kg·h/mL/mg
bioavailability ([3]; male, SD, blood, po): > 100%
pIC50 [4]: 7.51

SMILES: C[C@@]1(O)[C@@H]([C@H](O)c2ccc(Cl)c(Cl)c2)O[C@@H](n2ccc3c(N)ncnc32)[C@@H]1O [Formula I, Form I, (2R,3S,4R,5R)-5-(4-amino-7H-pyrrolo[2,3-d]pyrimidin-7-yl)-2-((R)-(3,4-dichlorophenyl)(hydroxy)methyl)-3-methyltetrahydrofuran-3,4-diol]
change of form, XRPD before and after DVS [5]: did not change the polymorphic form; also recorded: no change in form
water adsorbed (adsorption/desorption isotherms) ([5]; at about 95% humidity): ~0.5%
water adsorbed (adsorption/desorption isotherms) [5, 7]: ~0.8%

SMILES: C[C@@]1(O)[C@@H]([C@H](O)c2ccc(Cl)c(Cl)c2)O[C@@H](n2ccc3c(N)ncnc32)[C@@H]1O.O=C(O)/C=C\C(=O)O [Formula IA, (2R,3S,4R,5R)-5-(4-amino-7H-pyrrolo[2,3-d]pyrimidin-7-yl)-2-((R)-(3,4-dichlorophenyl)(hydroxy)methyl)-3-methyltetrahydrofuran-3,4-diol, maleate salt]
solubility [6]: ~1100 µg/mL

SMILES: C[C@@]1(O)[C@@H]([C@H](O)c2ccc(Cl)c(Cl)c2)O[C@@H](n2ccc3c(N)ncnc32)[C@@H]1O.Cl [Formula IB, (2R,3S,4R,5R)-5-(4-amino-7H-pyrrolo[2,3-d]pyrimidin-7-yl)-2-((R)-(3,4-dichlorophenyl)(hydroxy)methyl)-3-methyltetrahydrofuran-3,4-diol, hydrochloride salt]
solubility [6]: ~800 µg/mL

SMILES: C[C@@]1(O)[C@@H]([C@H](O)c2ccc(Cl)c(Cl)c2)O[C@@H](n2ccc3c(N)ncnc32)[C@@H]1O.Cl [Formula IB, Form III]
change of form, XRPD before and after DVS [5]: no change in form
water adsorbed (adsorption/desorption isotherms) ([5]; at about 95% humidity): ~2.8%
water adsorbed (adsorption/desorption isotherms) [5, 7]: ~1%

SMILES: C[C@@]1(O)[C@@H]([C@H](O)c2ccc(Cl)c(Cl)c2)O[C@@H](n2ccc3c(N)ncnc32)[C@@H]1O.Cl [Formula IB, Form II]
change of form, XRPD before and after DVS [5]: no change in Form
water adsorbed (adsorption/desorption isotherms) ([5]; at about 95% humidity): ~6%
water adsorbed (adsorption/desorption isotherms) [5, 7]: ~3%

SMILES: C[C@@]1(O)[C@@H]([C@H](O)c2ccc(Cl)c(Cl)c2)O[C@@H](n2ccc3c(N)ncnc32)[C@@H]1O.Cl [Formula IB, Form I]
change of form, XRPD before and after DVS [5]: no change in Form
water adsorbed (adsorption/desorption isotherms) ([5]; at about 95% humidity): ~0.5%
water adsorbed (adsorption/desorption isotherms) [5, 7]: ~0.1%

SMILES: C[C@@]1(O)[C@@H]([C@H](O)c2ccc(Cl)c(Cl)c2)O[C@@H](n2ccc3c(N)ncnc32)[C@@H]1O.O=C(O)C(=O)O [Formula IC, (2R,3S,4R,5R)-5-(4-amino-7H-pyrrolo[2,3-d]pyrimidin-7-yl)-2-((R)-(3,4-dichlorophenyl)(hydroxy)methyl)-3-methyltetrahydrofuran-3,4-diol, oxalate salt]
solubility [6]: < 300 µg/mL

SMILES: C[C@@]1(O)[C@@H]([C@H](O)c2ccc(Cl)c(Cl)c2)O[C@@H](n2ccc3c(N)ncnc32)[C@@H]1O.O=P(O)(O)O [Formula ID, (2R,3S,4R,5R)-5-(4-amino-7H-pyrrolo[2,3-d]pyrimidin-7-yl)-2-((R)-(3,4-dichlorophenyl)(hydroxy)methyl)-3-methyltetrahydrofuran-3,4-diol, phosphate salt]
solubility [6]: < 300 µg/mL

solubility at 4 h (physchem): 10 to 25 µg/mL (≈ 32.4 to 81.1 µM)
SMILES: CC(=O)CC(c1ccccc1)c1c(O)c2ccccc2oc1=O (stereo not shown) [Warfarin]
